Data taken from ChEMBL document CHEMBL1201862, “PubChem BioAssay data set” (2004).
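Briefly, cells in 96-well plates were exposed to five compound concentrations for 48 h, and endpoints were estimated by linear interpolation. GI50: concentration for 50% inhibition of growth.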 Active and inactive are the calls of the source. Cut-off read from the data, not from the text of the source: active = GI50 up to about 1.1 µM and inactive = higher.

Experiments:
Assay in all cases: DTP human tumour cell line panel, 48 h
A498 = test system: A498
UACC-257 = test system: UACC-257
NCI-H522 = test system: NCI-H522
SF-295 = test system: SF-295
KM12 = test system: KM12
OVCAR-8 = test system: OVCAR-8
RXF 393 = test system: RXF 393
M14 = test system: M14
TK-10 = test system: TK-10
OVCAR-5 = test system: OVCAR-5
K562 = test system: K562
SNB-19 = test system: SNB-19
HCT-15 = test system: HCT-15
DMS-114 = test system: DMS-114
OVCAR-3 = test system: OVCAR-3
Malme-3M = test system: Malme-3M
SR = test system: SR
MCF7 = test system: MCF7
NCI/ADR-RES = test system: NCI/ADR-RES
DU-145 = test system: DU-145

SMILES | GI50 (A498) | GI50 (UACC-257) | GI50 (NCI-H522) | GI50 (SF-295) | GI50 (KM12) | GI50 (OVCAR-8) | GI50 (RXF 393) | GI50 (M14) | GI50 (TK-10) | GI50 (OVCAR-5) | GI50 (K562) | GI50 (SNB-19) | GI50 (HCT-15) | GI50 (DMS-114) | GI50 (OVCAR-3) | GI50 (Malme-3M) | GI50 (SR) | GI50 (MCF7) | GI50 (NCI/ADR-RES) | GI50 (DU-145)
CCc1ccc(/N=C\c2cc(OC)c(OC)c(OC)c2)cc1 | > 100 µM (inactive) | > 100 µM (inactive) | > 100 µM (inactive) | > 100 µM (inactive) | > 100 µM (inactive) | > 100 µM (inactive) | > 100 µM (inactive) | > 100 µM (inactive) | > 100 µM (inactive) | > 100 µM (inactive) | 26.5 µM (inactive) | > 100 µM (inactive) | > 100 µM | 40.4 µM (inactive) | > 100 µM (inactive) | > 100 µM (inactive) | – | – | – | –
CCC1CCc2c(OC)ccc(OCC(=O)O)c2C1=O (stereo not given) | – | > 100 µM (inactive) | > 100 µM (inactive) | > 100 µM (inactive) | > 100 µM (inactive) | > 100 µM (inactive) | > 100 µM (inactive) | > 100 µM (inactive) | > 100 µM (inactive) | > 100 µM (inactive) | > 100 µM (inactive) | > 100 µM (inactive) | > 100 µM | > 100 µM (inactive) | > 100 µM (inactive) | > 100 µM (inactive) | > 100 µM (inactive) | – | – | –
C/C(=N/NC(=O)c1ccccc1O)c1ccc(/C(C)=N\NC(=O)c2ccccc2O)c2nc3cc(C)c(C)cc3nc12 | > 100 µM (inactive) | > 100 µM (inactive) | > 100 µM (inactive) | > 100 µM (inactive) | > 100 µM (inactive) | > 100 µM (inactive) | > 100 µM (inactive) | > 100 µM (inactive) | > 100 µM (inactive) | > 100 µM (inactive) | > 100 µM (inactive) | > 100 µM (inactive) | > 100 µM | > 100 µM (inactive) | > 100 µM (inactive) | > 100 µM (inactive) | – | – | – | –
CCOC(=O)Nn1c(C)cc(C(=O)OC)c1C | > 100 µM (inactive) | > 100 µM (inactive) | > 100 µM (inactive) | > 100 µM (inactive) | > 100 µM (inactive) | > 100 µM (inactive) | > 100 µM (inactive) | > 100 µM (inactive) | > 100 µM (inactive) | > 100 µM (inactive) | > 100 µM (inactive) | > 100 µM (inactive) | > 100 µM | > 100 µM (inactive) | > 100 µM (inactive) | > 100 µM (inactive) | – | – | – | –
c1ccc(C2C3=C(Nc4ncnn42)c2ccccc2C3)cc1 (stereo not given) | 51.2 µM (inactive) | > 100 µM (inactive) | 6.14 µM (inactive) | 8.02 µM (inactive) | 4.68 µM (inactive) | 30.8 µM (inactive) | 21.1 µM (inactive) | 5.38 µM (inactive) | 35 µM (inactive) | 46.8 µM (inactive) | 7.93 µM (inactive) | 14.9 µM (inactive) | 20.1 µM | 7.1 µM (inactive) | 8.93 µM (inactive) | 15.6 µM (inactive) | – | – | – | –
COC(=O)c1onc(-c2c(OC)cc(OC)cc2OC)c1C(=O)OC | – | > 100 µM (inactive) | > 100 µM (inactive) | > 100 µM (inactive) | > 100 µM (inactive) | > 100 µM (inactive) | > 100 µM (inactive) | > 100 µM (inactive) | > 100 µM (inactive) | > 100 µM (inactive) | > 100 µM (inactive) | > 100 µM (inactive) | > 100 µM | > 100 µM (inactive) | > 100 µM (inactive) | > 100 µM (inactive) | > 100 µM (inactive) | – | – | –
Nc1c(-c2nc3ccccc3s2)[n+]([O-])c2ccccc2[n+]1[O-] | 33.2 µM (inactive) | 30.8 µM (inactive) | 22 µM (inactive) | 23.6 µM (inactive) | 33.2 µM (inactive) | 38.6 µM (inactive) | – | 29.6 µM (inactive) | 42.1 µM (inactive) | > 100 µM (inactive) | 45.8 µM (inactive) | 29.3 µM (inactive) | – | 34.2 µM (inactive) | 23.3 µM (inactive) | 30.4 µM (inactive) | – | – | – | –
O=C(O)CCC1CCc2cccc3occ1c23 (stereo not given) | > 100 µM (inactive) | > 100 µM (inactive) | > 100 µM (inactive) | > 100 µM (inactive) | > 100 µM (inactive) | > 100 µM (inactive) | > 100 µM (inactive) | > 100 µM (inactive) | > 100 µM (inactive) | > 100 µM (inactive) | > 100 µM (inactive) | > 100 µM (inactive) | > 100 µM | > 100 µM (inactive) | > 100 µM (inactive) | > 100 µM (inactive) | – | – | – | –
Cc1noc(C)c1CCCOC1COc2ccccc2OCCOCCOc2ccccc2OC1 | > 100 µM (inactive) | > 100 µM (inactive) | > 100 µM (inactive) | > 100 µM (inactive) | > 100 µM (inactive) | > 100 µM (inactive) | > 100 µM (inactive) | > 100 µM (inactive) | > 100 µM (inactive) | > 100 µM (inactive) | > 100 µM (inactive) | > 100 µM (inactive) | > 100 µM | > 100 µM (inactive) | > 100 µM (inactive) | 80.4 µM (inactive) | – | – | – | –
COc1ccc(C(=O)N2c3ccccc3N(C)n3cccc3C2CC(=O)O)cc1 (stereo not given) | > 100 µM (inactive) | > 100 µM (inactive) | > 100 µM (inactive) | > 100 µM (inactive) | > 100 µM (inactive) | > 100 µM (inactive) | > 100 µM (inactive) | > 100 µM (inactive) | > 100 µM (inactive) | > 100 µM (inactive) | > 100 µM (inactive) | > 100 µM (inactive) | > 100 µM | > 100 µM (inactive) | > 100 µM (inactive) | > 100 µM (inactive) | – | – | – | –
O=C(/C=c1\oc(=O)/c(=C/C(=O)c2ccc(Cl)cc2)oc1=O)c1ccc(Cl)cc1 | > 100 µM (inactive) | > 100 µM (inactive) | 19.7 µM (inactive) | > 100 µM (inactive) | > 100 µM (inactive) | > 100 µM (inactive) | 60.7 µM (inactive) | > 100 µM (inactive) | > 100 µM (inactive) | > 100 µM (inactive) | > 100 µM (inactive) | > 100 µM (inactive) | 98.2 µM | – | 49.9 µM (inactive) | 51.3 µM (inactive) | 52.6 µM (inactive) | > 100 µM (inactive) | > 100 µM (inactive) | > 100 µM (inactive)
c1ccc2c3c(ccc2c1)CSCc1ccc2ccccc2c1-3 | > 100 µM (inactive) | 43.5 µM (inactive) | > 100 µM (inactive) | > 100 µM (inactive) | > 100 µM (inactive) | > 100 µM (inactive) | > 100 µM (inactive) | > 100 µM (inactive) | > 100 µM (inactive) | > 100 µM (inactive) | > 100 µM (inactive) | > 100 µM (inactive) | > 100 µM | – | > 100 µM (inactive) | > 100 µM (inactive) | 33 µM (inactive) | > 100 µM (inactive) | > 100 µM (inactive) | > 100 µM (inactive)
CC1=NN(c2cccc(S(=O)(=O)O)c2)C2(C1)C(Cl)C(=O)N2c1nc2ccccc2s1 (stereo not given) | 18.2 µM (inactive) | 13.6 µM (inactive) | 1.81 µM (inactive) | 13.8 µM (inactive) | 9.23 µM (inactive) | 5.65 µM (inactive) | 8.28 µM (inactive) | 8.65 µM (inactive) | 14.2 µM (inactive) | 13.4 µM (inactive) | 3.86 µM (inactive) | 11.2 µM (inactive) | 4.04 µM | – | 2.94 µM (inactive) | 5.83 µM (inactive) | 7.08 µM (inactive) | 8.89 µM (inactive) | 4.99 µM (inactive) | 11.3 µM (inactive)
O=C1c2ccc(O)cc2C(=O)c2ccc(O)cc21 | 38.5 µM (inactive) | > 100 µM (inactive) | 32.6 µM (inactive) | > 100 µM (inactive) | 88.7 µM (inactive) | > 100 µM (inactive) | 29.9 µM (inactive) | 58.9 µM (inactive) | 61.8 µM (inactive) | > 100 µM (inactive) | 50.1 µM (inactive) | 78.9 µM (inactive) | 52.5 µM | 95.9 µM (inactive) | 78.5 µM (inactive) | 57.4 µM (inactive) | – | – | – | –
CCOC(=O)CC1=N/C(=N/c2cc(Cl)ccc2Cl)SC1 | > 100 µM (inactive) | > 100 µM (inactive) | 76.4 µM (inactive) | > 100 µM (inactive) | > 100 µM (inactive) | > 100 µM (inactive) | > 100 µM (inactive) | > 100 µM (inactive) | > 100 µM (inactive) | > 100 µM (inactive) | 42.5 µM (inactive) | > 100 µM (inactive) | 59.4 µM | 38.5 µM (inactive) | 62.4 µM (inactive) | > 100 µM (inactive) | – | – | – | –
NC(=S)N/N=C/c1c[nH]c2ccccc12 | > 100 µM (inactive) | > 100 µM (inactive) | 52.5 µM (inactive) | > 100 µM (inactive) | > 100 µM (inactive) | > 100 µM (inactive) | > 100 µM (inactive) | > 100 µM (inactive) | > 100 µM (inactive) | > 100 µM (inactive) | > 100 µM (inactive) | > 100 µM (inactive) | > 100 µM | – | > 100 µM (inactive) | > 100 µM (inactive) | > 100 µM (inactive) | > 100 µM (inactive) | > 100 µM (inactive) | > 100 µM (inactive)
CC(=O)Oc1cccc2c(/C=N/NC(N)=S)ncc(C)c12 | 7.55 µM (inactive) | 5.51 µM (inactive) | 0.705 µM (active) | 2.47 µM (inactive) | 0.895 µM (active) | 0.463 µM (active) | 4.15 µM (inactive) | 0.753 µM (active) | 7.64 µM (inactive) | 7.35 µM (inactive) | 1.31 µM (inactive) | 1.2 µM (inactive) | 2.88 µM | – | 0.381 µM (active) | 1.26 µM (inactive) | 0.331 µM (active) | 0.603 µM (active) | 1.01 µM (active) | 0.347 µM (active)
